pIC50: −log10 of the molar value.

Sequence of R132H mutant IDH1 enzyme (O75874 whole entry R132H): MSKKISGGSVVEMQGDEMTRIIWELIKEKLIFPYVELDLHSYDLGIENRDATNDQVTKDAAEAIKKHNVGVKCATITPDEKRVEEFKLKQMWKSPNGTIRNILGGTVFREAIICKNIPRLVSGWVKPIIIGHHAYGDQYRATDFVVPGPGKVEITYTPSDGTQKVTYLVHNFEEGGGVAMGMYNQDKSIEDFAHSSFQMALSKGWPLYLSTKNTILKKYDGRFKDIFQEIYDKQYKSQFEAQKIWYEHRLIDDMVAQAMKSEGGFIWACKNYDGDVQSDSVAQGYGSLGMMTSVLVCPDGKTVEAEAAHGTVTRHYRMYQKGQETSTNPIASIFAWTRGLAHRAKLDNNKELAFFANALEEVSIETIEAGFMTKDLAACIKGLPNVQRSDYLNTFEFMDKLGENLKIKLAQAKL

In this assay the target is R132H mutant IDH1 enzyme (Homo sapiens (Human), UniProt O75874, R132H). Briefly: R132H IDH1 Enzymatic Assay. Format: biochemical. Particulars: 1.5 nM final, 30 min preincubation, 60 min reaction, Kinase-GLO luminescence. The method, then:
R132H IDH1 Enzymatic Assay
Each test compound (10 mM stock in DMSO) is diluted in DMSO to make a 10-point, 3-fold dilution series. 125 nL of each dilution or DMSO alone is dispensed to a 384-well Greiner Lumitrac 200 assay plate using an Echo® Liquid Handler. To each well of the plate is added 20 uL of enzyme in assay buffer or assay buffer alone. Assay buffer consists of 50 mM sodium phosphate, pH 7.0, 50 mM magnesium chloride, 50 mM sodium chloride, and 0.01% (w/v) bovine serum albumin. When present, the R132H mutant IDH1 enzyme is at a working concentration of 1.875 nM (final concentration in assay of 1.5 nM). The assay plate is allowed to incubate for 30 minutes at room temperature and 5 uL of 5× substrate mixture (2.5 uM nicotinamide adenine dinucleotide phosphate, 100 uM adenosine diphosphate, 7.5 mM glyceraldehyde-3-phosphate, 7.5 ug/mL of spinach glyceraldehyde-3-phosphate dehydrogenase, 25 nM phosphoglycerate kinase, and 5 mM alpha-ketoglutarate in assay buffer) is added to all wells. The reaction plate is incubated for 60 minutes followed by addition of 25 uL of Promega Kinase-GLO reagent to all wells and 10-minute incubation.
Luminescence is measured using a PerkinElmer Envision plate reader. The percent activity of each dilution is determined as the ratio of background corrected signal to the background corrected signal of wells receiving only DMSO. IC50 values are determined by fitting percent activity data to a four-parameter logistic dose response equation. The IC50 values of the exemplified compounds are included in Table 8.
The molecule `CC(C)O[C@H]1CC[C@H](C(=O)N2Cc3cc(F)cnc3Nc3ccc([C@@H]4COCCO4)cc32)OC1` [Example 34, (8-((R)-1,4-dioxan-2-yl)-3-fluoro-5,11-dihydro-6H-benzo[b]pyrido[2,3-e][1,4]diazepin-6-yl)((2R,5S)-5-isopropoxytetrahydro-2H-pyran-2-yl)methanone] had a pIC50 of 7.63.

Turning to `COc1ccc2c(c1)N(C(=O)C1CCN(CC(F)(F)F)CC1)C(C)c1cccnc1N2` (stereo not drawn) [Example 67, (8-Methoxy-5-methyl-5,11-dihydro-6H-benzo[b]pyrido[2,3-e][1,4]diazepin-6-yl)(1-(2,2,2-trifluoroethyl)piperidin-4-yl)methanone], the pIC50 is 6.67. Compared with the last molecule, the pIC50 is 0.96 log units lower.

With `O=C(C1CCN(CC(F)(F)F)CC1)N1Cc2cccnc2Nc2cc(F)c([C@@H]3COCCO3)cc21` [Example 56, (R)-(8-(1,4-Dioxan-2-yl)-9-fluoro-5,11-dihydro-6H-benzo[b]pyrido[2,3-e][1,4]diazepin-6-yl)(1-(2,2,2-trifluoroethyl)piperidin-4-yl)methanone], the pIC50 was 7.74.

Molecule `Cc1c(N2C[C@@H]3CC[C@H]2CO3)ccc2c1N(C(=O)[C@H]1CC[C@H](OC(C)C)CC1)Cc1cccnc1N2` [Example 59, (trans-4-isopropoxycyclohexyl){7-methyl-8-[(1S,4S)-2-oxa-5-azabicyclo[2.2.2]oct-5-yl]-5,11-dihydro-6H-pyrido[2,3-b][1,5]benzodiazepin-6-yl}methanone] had a pIC50 of 7.23. This pIC50 is 0.51 log units lower than that of the molecule before.

With `CC(C)O[C@H]1CC[C@H](C(=O)N2Cc3cc(F)cnc3Nc3cc(F)c([C@@H]4COCCO4)cc32)OC1` (single isomer, unassigned) [Example 35], the pIC50 is 7.55.

In turn, `Cn1nccc1-c1cc2c(cc1F)Nc1ncccc1CN2C(=O)C1CCN(CC(F)(F)F)CC1` [Example 53, (9-fluoro-8-(1-methyl-1H-pyrazol-5-yl)-5,11-dihydro-6H-benzo[b]pyrido[2,3-e][1,4]diazepin-6-yl)(1-(2,2,2-trifluoroethyl)piperidin-4-yl)methanone] showed a pIC50 of 8.14.

`Cn1nccc1-c1cc2c(cc1F)Nc1ncc(F)cc1CN2C(=O)C1CCN(CC(F)(F)F)CC1` [Example 50, (3,9-Difluoro-8-(1-methyl-1H-pyrazol-5-yl)-5,11-dihydro-6H-benzo[b]pyrido[2,3-e][1,4]diazepin-6-yl)(1-(2,2,2-trifluoroethyl)piperidin-4-yl)methanone]: the pIC50 is 8.46.

In the case of `O=C(C1CCN(CC(F)(F)F)CC1)N1Cc2cc(F)cnc2Nc2cc(F)c(Cl)cc21` [Example 5, (8-Chloro-3,9-difluoro-5,11-dihydro-6H-benzo[b]pyrido[2,3-e][1,4]diazepin-6-yl)(1-(2,2,2-trifluoroethyl)piperidin-4-yl)methanone], the pIC50 was 7.95.

The molecule `Cn1cc(-c2cc3c(cc2F)Nc2ncccc2CN3C(=O)C2CCN(CC(F)(F)F)CC2)cn1` [Example 52, (9-Fluoro-8-(1-methyl-1H-pyrazol-4-yl)-5,11-dihydro-6H-benzo[b]pyrido[2,3-e][1,4]diazepin-6-yl)(1-(2,2,2-trifluoroethyl)piperidin-4-yl)methanone] had a pIC50 of 8.24.

Molecule `C[C@H]1CN(c2cc3c(cc2F)Nc2ncc(F)cc2CN3C(=O)C2CCN(CC(F)(F)F)CC2)[C@@H](C)CO1` [Example 23, (8-((2S,5S)-2,5-dimethylmorpholino)-3,9-difluoro-5,11-dihydro-6H-benzo[b]pyrido[2,3-e][1,4]diazepin-6-yl)(1-(2,2,2-trifluoroethyl)piperidin-4-yl)methanone] showed a pIC50 of 7.64.

`CC(C)O[C@H]1CC[C@H](C(=O)N2Cc3cc(Cl)cnc3Nc3ccc(N4C[C@@H]5CC[C@H]4CO5)cc32)CC1` [Example 71, (8-((1S,4S)-2-Oxa-5-azabicyclo[2.2.2]octan-5-yl)-3-chloro-5,11-dihydro-6H-benzo[b]pyrido[2,3-e][1,4]diazepin-6-yl)(trans-4-isopropoxycyclohexyl)methanone] gave a pIC50 of 7.52.

Regarding `CC(C)O[C@H]1CC[C@H](C(=O)N2Cc3cc(F)cnc3Nc3cc(F)c(N4CC5(CCCOC5)C4)cc32)OC1` [Example 45, (3,9-Difluoro-8-(6-oxa-2-azaspiro[3.5]nonan-2-yl)-5H-benzo[b]pyrido[2,3-e][1,4]diazepin-6(11H)-yl)((2R,5S)-5-isopropoxytetrahydro-2H-pyran-2-yl)methanone], the pIC50 is 7.74. This pIC50 lies 0.22 log units higher than the previous one.

Molecule `CC(C)OC1CC[C@H](C(=O)N2Cc3cc(F)cnc3Nc3ccc(N4C[C@@H]5CC[C@H]4CO5)cc32)OC1` (stereo in doubt) [Example 49, (8-((1S,4S)-2-oxa-5-azabicyclo[2.2.2]octan-5-yl)-3-fluoro-5,11-dihydro-6H-benzo[b]pyrido[2,3-e][1,4]diazepin-6-yl)((2R,5R)-5-isopropoxytetrahydro-2H-pyran-2-yl)methanone] had a pIC50 of 7.92.

The molecule `CC(C)O[C@H]1CC[C@H](C(=O)N2Cc3cc(F)cnc3Nc3ccc([C@H]4COCCO4)cc32)OC1` [Example 33, (8-((S)-1,4-Dioxan-2-yl)-3-fluoro-5,11-dihydro-6H-benzo[b]pyrido[2,3-e][1,4]diazepin-6-yl)((2R,5S)-5-isopropoxytetrahydro-2H-pyran-2-yl)methanone] gave a pIC50 of 7.66. Against the preceding molecule, the pIC50 is 0.26 log units lower.

The molecule `CC(C)OC1CCC(C(=O)N2c3cc(Cl)ccc3Nc3ncccc3C2C)CC1` (stereo not drawn) [Example 65, (8-Chloro-5-methyl-5,11-dihydro-6H-benzo[b]pyrido[2,3-e][1,4]diazepin-6-yl)(trans-4-isopropoxycyclohexyl)methanone] had a pIC50 of 6.98.

For the molecule `CC(C)O[C@H]1CC[C@H](C(=O)N2Cc3cccnc3Nc3cc(F)c(C4COCCO4)cc32)OC1` (stereo partly drawn) [Example 37, (8-(1,4-dioxan-2-yl)-9-fluoro-5,11-dihydro-6H-benzo[b]pyrido[2,3-e][1,4]diazepin-6-yl)((2R,5S)-5-isopropoxytetrahydro-2H-pyran-2-yl)methanone], the pIC50 is 7.43.

Molecule `O=C(C1CCN(CC(F)(F)F)CC1)N1Cc2cc(F)cnc2Nc2ccc(N3CC4(CCCOC4)C3)cc21` [Example 12, (3-fluoro-8-(6-oxa-2-azaspiro[3.5]nonan-2-yl)-5,11-dihydro-6H-benzo[b]pyrido[2,3-e][1,4]diazepin-6-yl)(1-(2,2,2-trifluoroethyl)piperidin-4-yl)methanone] had a pIC50 of 7.66. Against the preceding molecule, the pIC50 is 0.23 log units higher.

As for `COc1ccc2c(c1)N(C(=O)[C@H]1CC[C@H](OC(C)C)CC1)C(C)c1cccnc1N2` (stereo partly drawn) [Example 68, (Trans-4-isopropoxycyclohexyl)(8-methoxy-5-methyl-5,11-dihydro-6H-benzo[b]pyrido[2,3-e][1,4]diazepin-6-yl)methanone], the pIC50 was 6.95.

As to `CC(C)O[C@H]1CC[C@H](C(=O)N2Cc3cc(S(C)(=O)=O)cnc3Nc3ccc(N4C[C@@H]5CC[C@H]4CO5)cc32)CC1` [Example 70, (8-((1S,4S)-2-oxa-5-azabicyclo[2.2.2]octan-5-yl)-3-(methylsulfonyl)-5,11-dihydro-6H-benzo[b]pyrido[2,3-e][1,4]diazepin-6-yl)(trans-4-isopropoxycyclohexyl)methanone], the pIC50 is 5.24.

Consider `CC(C)O[C@H]1CC[C@H](C(=O)N2Cc3cc(F)cnc3Nc3ccc(N4C[C@H]5CC[C@@H]4CO5)cc32)OC1` [Example 48, (8-((1R,4R)-2-oxa-5-azabicyclo[2.2.2]octan-5-yl)-3-fluoro-5,11-dihydro-6H-benzo[b]pyrido[2,3-e][1,4]diazepin-6-yl)((2R,5S)-5-isopropoxytetrahydro-2H-pyran-2-yl)methanone], for which the pIC50 is 8.00.

Molecule `CC(C)O[C@H]1CC[C@H](C(=O)N2Cc3cc(F)cnc3Nc3ccc(N4[C@@H]5CO[C@H]6[C@@H]5OC[C@H]64)cc32)CC1` [Example 17, (3-fluoro-8-((3R,3aR,6R,6aR)-hexahydro-3,6-epiminofuro[3,2-b]furan-7-yl)-5,11-dihydro-6H-benzo[b]pyrido[2,3-e][1,4]diazepin-6-yl)(trans-4-isopropoxycyclohexyl)methanone] had a pIC50 of 7.55. This pIC50 lies 0.45 log units lower than the previous one.

Take `CC(C)O[C@H]1CC[C@H](C(=O)N2Cc3cc(F)cnc3Nc3cc(F)c(N4CC5(CCCOC5)C4)cc32)CC1` [Example 25, [3,9-difluoro-8-(6-oxa-2-azaspiro[3.5]non-2-yl)-5,11-dihydro-6H-pyrido[2,3-b][1,5]benzodiazepin-6-yl][trans-4-(propan-2-yloxy)cyclohexyl]methanone]: the pIC50 is 8.11.

For `O=C(C1CCN(CC(F)(F)F)CC1)N1Cc2cc(F)cnc2Nc2cc(F)c(N3CC4CCC3CO4)cc21` (stereo not drawn) [Example 73, (8-(2-oxa-5-azabicyclo[2.2.2]octan-5-yl)-3,9-difluoro-5H-benzo[b]pyrido[2,3-e][1,4]diazepin-6(11H)-yl)(1-(2,2,2-trifluoroethyl)piperidin-4-yl)methanone], the pIC50 is 8.00. This pIC50 and that of the molecule before are within 0.2 log units of each other.

`CO[C@H]1C[C@H]2CC[C@@H](C1)N2c1cc2c(cc1F)Nc1ncc(F)cc1CN2C(=O)C1CCN(CC(F)(F)F)CC1` [Example 30, (3,9-difluoro-8-((1R,3r,5S)-3-methoxy-8-azabicyclo[3.2.1]octan-8-yl)-5,11-dihydro-6H-benzo[b]pyrido[2,3-e][1,4]diazepin-6-yl)(1-(2,2,2-trifluoroethyl)piperidin-4-yl)methanone] showed a pIC50 of 7.85.

Values taken from patent US10399972B2, “Tricyclic compounds as inhibitors of mutant IDH enzymes” (Merck Sharp & Dohme Corp., priority 2015, dated 2019).
